Results: article PMC12292992, “Betulinic Acid ω-Triphenylphosphonium Alkyl Esters: Antiproliferative Activities and In Silico Pharmacokinetic Profiles” (Biomedicines, 2025)

Columns and labels:
AU565 cells = experiment: MTT cell viability assay, mammary carcinoma; assay type: cell-based, human; conditions: Homo sapiens
Description: (§1) Human cell lines were obtained from the American Type Culture Collection (ATCC, Manassas, VA, USA). Normal lung MRC-5 fibroblasts (ATCC® CCL-171™), SK-MES-1 lung cancer cells (ATCC® HTB-58™), and J82 bladder carcinoma cells (ATCC® HTB-1™) were grown as monolayers in Eagle’s minimum essential medium (MEM) with Earle’s salts, 2 mM L-glutamine, and 1.5 g/L sodium bicarbonate. Gastric epithelial AGS cells (ATCC® CRL-1739™) were grown as monolayers in Ham’s F-12 medium containing 1 mM L-glutamine and 1.5 g/L sodium bicarbonate. Promyelocytic leukemia HL-60 (ATCC® CCL-240™), colorectal adenocarcinoma HCT-15 (ATCC® CCL-225™), metastatic colorectal COLO205 (ATCC® CCL-222™), and breast cancer AU565 (ATCC® CRL-2351™, ER^−-HER2/neu^+) cells were grown in suspension in an RPMI-1640 medium containing 1 mM sodium pyruvate and 2.0 g/L sodium bicarbonate. Human breast cancer MCF-7 (ATCC® HTB-22™, ER^+-HER2/neu^−) and MDA-MB-231 (ATCC® HTB-26™, ER^−-HER2/neu^−) cells were grown as monolayers in DMEM medium. All media were supplemented with 10% heat-inactivated fetal bovine serum (HI-FBS), 100 IU/mL penicillin G, and 100 µg/mL streptomycin. Cells were maintained at 37 °C in a humidified incubator with 5% CO2.
(§2) MRC-5, SK-MES-1, J82, and AGS cells were seeded at a density of 5 × 10^4 cells/mL in 96-well plates. COLO205, HCT-15, MCF-7, MDA-MB-231, and AU565 cells were seeded at 1 × 10^5 cells/mL, while HL-60 cells were plated at 3 × 10^5 cells/mL. A volume of 100 µL of the cell suspension was added to each well. After 24 h, the compounds were added in increasing concentrations (ranging from 0 to 100 µM), and cells were incubated for 24, 48, or 72 h. The compounds were dissolved in DMSO and diluted in complete medium to a final concentration of 0.5% DMSO. Cells treated with 0.5% DMSO in complete medium were used as viability controls (100%). Etoposide (98% purity, Sigma-Aldrich, St. Louis, MO, USA) was used as the reference compound. Each concentration was tested in quadruplicate, and each experiment was performed twice using independent cell preparations. At the end of the incubation period, cell viability was determined using the MTT reduction assay. The results were transformed into percentages relative to controls, and IC50 values were obtained graphically from the dose–response curves. Results are presented as IC50 values ± standard deviation (SD).

HCT-15 cells = experiment: MTT cell viability assay, colorectal carcinoma; assay type: cell-based, human; conditions: Homo sapiens
Description: as §1, §2

COLO205 cells = experiment: MTT cell viability assay, metastatic colorectal cancer; assay type: cell-based, human; conditions: Homo sapiens, COLO 205
Description: as §1, §2

J82 cells = experiment: MTT cell viability assay, bladder carcinoma; assay type: cell-based; conditions: Homo sapiens, J82, 72 h
Description: as §1, §2

SK-MES-1 cells = experiment: MTT cell viability assay, lung cancer; assay type: cell-based; conditions: Homo sapiens, SK-MES-1, 72 h
Description: as §1, §2

AGS cells = experiment: MTT cell viability assay, gastric adenocarcinoma; assay type: cell-based; conditions: Homo sapiens, 72 h
Description: as §1, §2

HL-60 cells = experiment: MTT cell viability assay, leukemia; assay type: cell-based; conditions: Homo sapiens, HL-60, 72 h
Description: as §1, §2

[1] = tested on: MRC-5 normal human lung fibroblasts; experiment: MTT cell viability assay, normal lung fibroblasts; assay type: cell-based; conditions: MRC5, MRC-5, 72 h
Description: as §1, §2

human cancer cell lines = experiment: MTT cell viability, summary over the human cancer cell lines; assay type: cell-based; conditions: nine human cancer cell lines, relative to BA, summary statement
Description: as §1, §2

MCF-7 cells [2] = experiment: Oxygen consumption assay (Clark-type electrode); assay type: cell-based, human; conditions: MCF-7, 10 and 20 µM
Description: Oxygen consumption of the tumor cells was measured polarographically using a Clark-type electrode (Yellow Springs Instruments, Dayton, OH, USA) placed horizontally in a cell of 0.6 mL volume at 25 °C, coupled to a YSI monitor (model 53). The electrode signal was recorded in a computer connected to a DI-148U module with a USB interface. Data were acquired using the Windaq Acquisition Waveform Recorder software v3.36 (DataQ Instruments, Akron, OH, USA). The test medium used contained 150 mM NaCl, 5 mM KCl, and 1 mM Tris-HCl, and pH 7.4. 5 mM glutamine was added with the cells and test compounds. Oxygen consumption was recorded when the cell aliquots (6 × 10^6 cells) were added. Oligomycin (1.5 μg/mL) was added as an inhibitor of the Fo subunit of ATP synthase prior to the incorporation of the compounds under study. FCCP (carbonyl cyanide-p-trifluoromethoxyphenylhydrazone, 50 nM) was used prior to the addition of test compounds as an internal control to calibrate the electrode system and confirm the maximum uncoupling capacity of the cells.

MCF-7 cells [3] = experiment: MTT cell viability assay, mammary carcinoma; assay type: cell-based; conditions: Homo sapiens, MCF7
Description: as §1, §2

MDA-MB-231 cells = experiment: MTT cell viability assay, mammary carcinoma; assay type: cell-based; conditions: Homo sapiens
Description: as §1, §2

[4] = design: method as in PMID 17576843, PMID 17638699; conditions: oral administration, healthy individuals and patients with HIV, cited from earlier work

Row | Structure (SMILES) | IC50 (AU565 cells; AU565, 24 h) | IC50 (AU565 cells; AU565, 48 h) | IC50 (HCT-15 cells; HCT-15, 24 h) | IC50 (HCT-15 cells; HCT-15, 48 h) | IC50 (HCT-15 cells; HCT-15, 72 h) | IC50 (COLO205 cells; COLO205, 24 h) | IC50 (COLO205 cells; COLO205, 48 h) | IC50 (COLO205 cells; COLO205, 72 h) | IC50 (J82 cells) | IC50 (SK-MES-1 cells) | IC50 (AGS cells) | IC50 (HL-60 cells) | IC50 [1] | increase in potency (human cancer cell lines) | mitochondrial uncoupling effect (MCF-7 cells [2]) | IC50 (MCF-7 cells [3]; MCF-7, 24 h) | IC50 (MCF-7 cells [3]; MCF-7, 48 h) | IC50 (MDA-MB-231 cells; MDA-MB-231, 24 h) | IC50 (MDA-MB-231 cells; MDA-MB-231, 48 h) | further results
1 | C=C(C)[C@@H]1CC[C@]2(C(=O)O)CC[C@]3(C)[C@H](CC[C@@H]4[C@@]5(C)CC[C@H](O)C(C)(C)[C@@H]5CC[C@]43C)[C@@H]12 [BA, 3β-hydroxy-lup-20(29)-en-28-oic acid, reference compound] | 33090 ± 170 nM | 9290 ± 980 nM | 43800 ± 3640 nM | 9470 ± 3100 nM | 3890 ± 1300 nM | 97700 ± 1020 nM | 74600 ± 2870 nM | 34300 ± 2580 nM | 32800 ± 1700 nM | 44800 ± 2700 nM | 14100 ± 500 nM | 21900 ± 1500 nM | 56700 ± 4300 nM | – | – | – | – | – | – | –
2 | C=C(C)[C@@H]1CC[C@]2(C(=O)OCCCCC[P+](c3ccccc3)(c3ccccc3)c3ccccc3)CC[C@]3(C)C(CCC4[C@@]5(C)CC[C@H](O)C(C)(C)C5CC[C@]43C)C12 (stereo partly drawn) [BA-C5-TPP^+Br^−, 5-Triphenylphosphoniopentyl 3β-hydroxylup-20(29)-en-28-oate bromide] | 5910 ± 80 nM | 1020 ± 180 nM | 5170 ± 1320 nM | 1930 ± 360 nM | 1930 ± 320 nM | 4320 ± 2400 nM | 1620 ± 1150 nM | 1610 ± 20 nM | 1220 ± 10 nM | 470 ± 40 nM | 770 ± 80 nM | 630 ± 50 nM | 830 ± 20 nM | over 100 fold | concentration-dependent uncoupling effect, though less pronounced than that of BA-C4-TPP^+Br^− | 8680 ± 1270 nM | 1770 ± 400 nM | 5500 ± 600 nM | 2530 ± 650 nM | –
3 | C=C(C)[C@@H]1CC[C@]2(C(=O)OCCCCCC[P+](c3ccccc3)(c3ccccc3)c3ccccc3)CC[C@]3(C)C(CCC4[C@@]5(C)CC[C@H](O)C(C)(C)C5CC[C@]43C)C12 (stereo partly drawn) [BA-C6-TPP^+Br^−, 6-Triphenylphosphoniohexyl 3β-hydroxylup-20(29)-en-28-oate bromide] | 6370 ± 310 nM | 1330 ± 120 nM | 9040 ± 2800 nM | 2890 ± 240 nM | 2400 ± 130 nM | 4870 ± 1430 nM | 840 ± 390 nM | 970 ± 290 nM | 1710 ± 50 nM | 680 ± 10 nM | 1270 ± 20 nM | 910 ± 10 nM | 1350 ± 100 nM | over 100 fold | not seen at the tested concentrations | 7690 ± 1320 nM | 4620 ± 530 nM | 7280 ± 530 nM | 2660 ± 80 nM | –
4 | C=C(C)[C@@H]1CC[C@]2(C(=O)O)CC[C@]3(C)[C@H](CC[C@@H]4[C@@]5(C)CC[C@H](OC(=O)CC(C)(C)C(=O)O)C(C)(C)[C@@H]5CC[C@]43C)[C@@H]12 [Compound 4, 3-O-(3′,3′-Dimethylsuccinyl)-BA] | – | – | – | – | – | – | – | – | – | – | – | – | – | – | – | – | – | – | – | tolerance ([4]; all studied doses): good tolerance at all studied doses; half-life [4]: long half-life; oral absorption [4]: rapid oral absorption
5 | COc1cc([C@@H]2c3cc4c(cc3[C@@H](O[C@@H]3O[C@@H]5CO[C@@H](C)O[C@H]5[C@H](O)[C@H]3O)[C@H]3COC(=O)[C@H]23)OCO4)cc(OC)c1O [Etoposide, reference compound] | – | – | – | – | – | – | – | – | 2850 ± 20 nM | 2610 ± 10 nM | 460 ± 40 nM | 820 ± 10 nM | 3960 ± 210 nM | – | – | – | – | – | – | –
